Results on eleven compounds are retold here after patent US10975068B2, “6-aminopyridin-3-yl thiazoles as modulators of RORγT” (Janssen Pharmaceutica NV, priority 2016, dated 2021).

The target of one assay is full-length human RORγt (Homo sapiens (Human), UniProt P51449). In words: RORγt (full-length human) reporter assay, Conditions B or C. Conditions: for RORγt (FL) Reporter Assay B or C, % inhibition (value marked *): marked *: footnote not given; for pIC50: read-out: RORγt (FL) Reporter Assay B or C, IC50; for inhibition at 3 µM: at 3 μM compound concentration. Type of assay: cell-based. A digest of the protocol:
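Readout is dual luciferase: firefly (GAL4-driven) normalized to DMSO-only and saturating-reference controls, then to CMV-Renilla. Full-length human RORγt fused to GAL4-DBD was transiently expressed in HEK293T; compound exposure ran overnight (16-20 h) starting 4-6 h after transfection, final FBS 1.3%, DMSO 0.1%.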
(In general: A reporter such as luciferase makes a cellular process visible.)

Assay [1] deals with human RORγt ligand binding domain (RORγt LBD) (Homo sapiens (Human), UniProt P51449). Description: RORγt ThermoFluor® assay (thermal shift binding). Conditions: read-out: ThermoFluor® Assay, Kd. A digest of the protocol: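 Binding was inferred from thermal stabilisation (ΔTm) of the E. coli-expressed RORγt LBD (0.065 mg/mL), monitored by 1,8-ANS (60 μM) emission at 500 nm during a 1 °C/min ramp. Buffer was Hepes 100 mM pH 7.0 with NaCl, GSH and Tween-20.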
On the technique in general: Differential scanning fluorimetry follows unfolding on heating by fluorescence.

The mark [2] stands for this setting: read-out: RORγt (FL) Reporter Assay B or C, % inhibition.

Structures are written as SMILES. pIC50, pKd: −log10 of the molar value. Read-outs that look alike come from different tables or passages of the source.

Chain of full-length human RORγt (P51449 other isoform, or with tags, fused parts or gaps): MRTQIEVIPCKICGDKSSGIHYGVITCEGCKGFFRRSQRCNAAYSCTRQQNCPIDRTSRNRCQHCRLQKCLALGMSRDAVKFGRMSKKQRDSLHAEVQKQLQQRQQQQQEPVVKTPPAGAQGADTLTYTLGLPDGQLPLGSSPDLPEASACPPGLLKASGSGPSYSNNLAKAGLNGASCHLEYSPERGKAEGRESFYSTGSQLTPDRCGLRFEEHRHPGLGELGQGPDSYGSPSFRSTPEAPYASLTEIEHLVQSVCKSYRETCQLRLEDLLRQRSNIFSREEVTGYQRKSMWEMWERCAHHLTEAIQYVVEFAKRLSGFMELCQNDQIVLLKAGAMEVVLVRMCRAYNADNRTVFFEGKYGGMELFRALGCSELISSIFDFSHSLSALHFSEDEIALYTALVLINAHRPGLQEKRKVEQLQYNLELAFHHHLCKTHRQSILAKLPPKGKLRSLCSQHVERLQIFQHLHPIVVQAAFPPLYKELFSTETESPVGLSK
Chain of human RORγt ligand binding domain (RORγt LBD) (P51449 other isoform, or with tags, fused parts or gaps): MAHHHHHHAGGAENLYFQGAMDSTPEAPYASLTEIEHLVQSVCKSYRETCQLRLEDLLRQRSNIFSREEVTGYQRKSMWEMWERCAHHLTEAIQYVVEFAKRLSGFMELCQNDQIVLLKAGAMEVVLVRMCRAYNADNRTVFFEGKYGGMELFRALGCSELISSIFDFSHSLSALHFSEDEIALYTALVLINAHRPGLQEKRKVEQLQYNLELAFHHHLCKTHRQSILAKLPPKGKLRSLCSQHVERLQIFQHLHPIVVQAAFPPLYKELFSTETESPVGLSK

With `CC[C@H](Nc1cc(C(F)F)c(-c2sc(C(=O)N[C@H]3C[C@H](O)C3)nc2C(=O)N2CCC[C@@H]2C)cn1)C(F)(F)F` [Example 233, 5-[4-(Difluoromethyl)-6-[[(1S)-1-(trifluoromethyl)propyl]amino]-3-pyridyl]-N-((1r,3S)-3-hydroxycyclobutyl)-4-[(2S)-2-methylpyrrolidine-1-carbonyl]thiazole-2-carboxamide], on full-length human RORγt (Conditions B or C), the “RORγt (FL) Reporter Assay B or C, % inhibition (value marked *)” value (shortened to “RORγt … % inhibition (value marked *)”) was 124* % and the pIC50 (commonly −log10 of the IC50, conventionally taken in molar units) was 7.66. Also, the pKd (commonly the negative decadic logarithm of the Kd, by convention in mol/L) in assay [1] was 8.00.

For `C[C@H]1CCCN1C(=O)c1nc(C(=O)N[C@H]2C[C@@H](O)C2)sc1-c1cnc(NC(C)(C)C)cc1C(F)(F)F` [Example 251, 5-[6-(tert-Butylamino)-4-(trifluoromethyl)-3-pyridyl]-N-((1s,3R)-3-hydroxycyclobutyl)-4-[(2S)-2-methylpyrrolidine-1-carbonyl]thiazole-2-carboxamide], the inhibition (usually the change of the read-out against control, counted positive when it falls) at 3 µM on full-length human RORγt (setting [2]) worked out at 104%. For the same compound, at full-length human RORγt, the pIC50 was 7.14. Moreover, the pKd in assay [1] was 7.68.

As to `C[C@H]1CCCN1C(=O)c1nc(C(=O)N[C@H]2COC[C@@H]2O)sc1-c1cnc(NC(C)(C)C)cc1C(F)F` [Example 401, 5-[6-(tert-Butylamino)-4-(difluoromethyl)-3-pyridyl]-N-[(3S,4R)-4-hydroxytetrahydrofuran-3-yl]-4-[(2S)-2-methylpyrrolidine-1-carbonyl]thiazole-2-carboxamide], on full-length human RORγt (at 1 μM compound concentration, read-out: RORγt (FL) Reporter Assay B or C, % inhibition), the inhibition at 1 µM was 102%. Also, the pIC50 at full-length human RORγt was 7.42. In assay [1], the pKd is 8.37.

As to `CC[C@H](Nc1cc(C(F)F)c(-c2sc(C(=O)NC3CCS(=O)(=O)CC3)nc2C(=O)N2C3CCC2CC3)cn1)C(F)(F)F` [Example 154], at full-length human RORγt (Conditions B or C), the “RORγt … % inhibition (value marked *)” value is given as 99* % and the pIC50 was 7.01. The pKd in assay [1] was 9.00.

Regarding `CCC(C)(C)Nc1cc(C(F)(F)F)c(-c2sc(C(=O)NCC(C)(C)O)nc2C(=O)N2CC(F)(F)C[C@@H]2C)cn1` [Example 103, (S)-4-(4,4-Difluoro-2-methylpyrrolidine-1-carbonyl)-N-(2-hydroxy-2-methylpropyl)-5-(6-(tert-pentylamino)-4-(trifluoromethyl)pyridin-3-yl)thiazole-2-carboxamide], at full-length human RORγt (Conditions B or C), the “RORγt … % inhibition (value marked *)” value is 110* % and the pIC50 was 8.41. Moreover, the pKd in assay [1] was 9.59.

Turning to `CC[C@H](Nc1cc(C(F)F)c(-c2sc(C(=O)N[C@H](C)CO)nc2C(=O)N2CCC[C@@H]2C)cn1)C(F)(F)F` [Example 234, 5-[4-(Difluoromethyl)-6-[[(1S)-1-(trifluoromethyl)propyl]amino]-3-pyridyl]-N-[(1R)-2-hydroxy-1-methyl-ethyl]-4-[(2S)-2-methylpyrrolidine-1-carbonyl]thiazole-2-carboxamide], at full-length human RORγt (Conditions B or C), the “RORγt … % inhibition (value marked *)” value is listed as 116* % and the negative logarithm of the IC50 (pIC50) was 7.38. In assay [1], the pKd was 8.28.

With `C[C@H]1CCCN1C(=O)c1nc(C(=O)NCC(C)(C)O)sc1-c1cnc(NC2(C(F)(F)F)CCC2)cc1C(F)F` [Example 123, (S)-5-(4-(Difluoromethyl)-6-((1-(trifluoromethyl)cyclobutyl)amino)pyridin-3-yl)-N-(2-hydroxy-2-methylpropyl)-4-(2-methylpyrrolidine-1-carbonyl)thiazole-2-carboxamide], at full-length human RORγt (Conditions B or C), the “RORγt … % inhibition (value marked *)” value was 105* % and the pIC50 is 7.89. For the same compound, the pKd in assay [1] is 8.72.

With `C[C@H](Nc1cc(C(F)F)c(-c2sc(C(=O)N[C@@H]3CCC[C@H]3O)nc2C(=O)N2CCC[C@@H]2C)cn1)C(F)(F)F` [Example 283, 5-(4-(Difluoromethyl)-6-(((S)-1,1,1-trifluoropropan-2-yl)amino)pyridin-3-yl)-N-((1R,2R)-2-hydroxycyclopentyl)-4-((S)-2-methylpyrrolidine-1-carbonyl)thiazole-2-carboxamide], the inhibition at 3 µM at full-length human RORγt (setting [2]) was determined as 106%. For the same compound, at full-length human RORγt, the pIC50 was 7.27. Moreover, in assay [1], the pKd is 8.72.

Regarding `CCC(C)(C)Nc1cc(C(F)(F)F)c(-c2sc(C(=O)NCC(C)(C)O)nc2C(=O)N2CCCC[C@@H]2C)cn1` [Example 108, (S)—N-(2-Hydroxy-2-methylpropyl)-4-(2-methylpiperidine-1-carbonyl)-5-(6-(tert-pentylamino)-4-(trifluoromethyl)pyridin-3-yl)thiazole-2-carboxamide], at full-length human RORγt (Conditions B or C), the “RORγt … % inhibition (value marked *)” value is reported as 104* % and the pIC50 was 7.33. Also, the pKd in assay [1] is 10.15.

As to `C[C@H](Nc1cc(C(F)F)c(-c2sc(C(=O)N[C@H]3CC[C@@H]3O)nc2C(=O)N2C3CCC2CC3)cn1)C(F)(F)F` (relative stereo) [Example 292, 4-((1s,4s)-7-Azabicyclo[2.2.1]heptane-7-carbonyl)-5-(4-(difluoromethyl)-6-(((S)-1,1,1-trifluoropropan-2-yl)amino)pyridin-3-yl)-N-((1S*,2S*)-2-hydroxycyclobutyl)thiazole-2-carboxamide], at full-length human RORγt (setting [2]), the inhibition at 3 µM stood at 106%. Moreover, the pIC50 at full-length human RORγt was 7.40. For the same compound, in assay [1], the pKd is 8.21.

For `CC(C)(O)CNC(=O)c1nc(C(=O)N2C3CCC2CC3)c(-c2cnc(NC3(C(F)(F)F)CCC3)cc2C(F)(F)F)s1` [Example 99, 4-((1s,4s)-7-Azabicyclo[2.2.1]heptane-7-carbonyl)-N-(2-hydroxy-2-methylpropyl)-5-(4-(trifluoromethyl)-6-((1-(trifluoromethyl)cyclobutyl)amino)pyridin-3-yl)thiazole-2-carboxamide], on full-length human RORγt (Conditions B or C), the “RORγt … % inhibition (value marked *)” value is reported as 108* % and the pIC50 is 7.96. Further, in assay [1], the negative logarithm of the Kd (pKd) was 9.24.
